# Key:
# [1] = biological target: T1, Human KDR (Homo sapiens, UniProt P35968); assay: Human KDR kinase assay (33P radiometric / HTRF KinEase); type: biochemical; conditions: protocols of Examples B-1 and/or B-2
# T1 construct: Human KDR (residues K790-V1356, 55 nM); purchased Eurofins Pharma Discovery Services UK Limited (KinaseProfiler, B-1) and/or CarnaBio (B-2)
# Outline: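 Radiometric: KDR K790-V1356 (55 nM), MOPS pH 7.0, myelin basic protein, 10 μM [γ-33P]ATP, 40 min at room temperature, filter-bound 33P counted; nine half-log doses, top 1 μM. HTRF: KDR 790-1356, 1 μM biotinylated peptide, ATP at Km (4.0 μM), 40 min, 10 doses. IC50 from logistic fits.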
# [2] = biological target: T2, Human Axl (Homo sapiens, UniProt P30530); assay: Human AXL kinase assay (33P radiometric / HTRF KinEase); type: biochemical; conditions: protocols of Examples A-1 and/or A-2
# T2 construct: Human AXL (residues 464-885)
# T2 sequence (P30530 1-894 Q764R): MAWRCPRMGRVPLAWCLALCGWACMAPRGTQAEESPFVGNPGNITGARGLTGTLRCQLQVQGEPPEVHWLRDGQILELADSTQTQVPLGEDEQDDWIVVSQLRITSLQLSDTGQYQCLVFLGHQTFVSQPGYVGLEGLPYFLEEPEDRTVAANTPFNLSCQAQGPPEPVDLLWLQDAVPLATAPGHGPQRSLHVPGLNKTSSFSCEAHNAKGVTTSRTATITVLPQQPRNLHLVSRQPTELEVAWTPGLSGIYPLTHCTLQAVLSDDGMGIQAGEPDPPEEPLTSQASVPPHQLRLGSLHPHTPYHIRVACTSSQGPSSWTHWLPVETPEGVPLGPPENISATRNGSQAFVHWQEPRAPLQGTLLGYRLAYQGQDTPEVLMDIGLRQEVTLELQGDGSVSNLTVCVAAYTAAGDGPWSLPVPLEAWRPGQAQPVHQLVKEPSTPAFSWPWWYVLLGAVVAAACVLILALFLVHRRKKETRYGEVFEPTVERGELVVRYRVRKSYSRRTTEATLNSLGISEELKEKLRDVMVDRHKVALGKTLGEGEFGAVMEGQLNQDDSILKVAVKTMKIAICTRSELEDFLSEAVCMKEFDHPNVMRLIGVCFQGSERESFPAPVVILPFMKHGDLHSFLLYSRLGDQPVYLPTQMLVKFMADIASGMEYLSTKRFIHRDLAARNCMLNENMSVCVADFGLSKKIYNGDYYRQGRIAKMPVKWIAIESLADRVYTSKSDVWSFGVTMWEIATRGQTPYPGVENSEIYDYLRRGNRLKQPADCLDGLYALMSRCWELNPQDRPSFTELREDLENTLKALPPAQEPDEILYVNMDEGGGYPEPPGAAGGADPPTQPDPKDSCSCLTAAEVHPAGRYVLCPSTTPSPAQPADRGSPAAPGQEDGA
# T1 sequence (P35968 790-1356): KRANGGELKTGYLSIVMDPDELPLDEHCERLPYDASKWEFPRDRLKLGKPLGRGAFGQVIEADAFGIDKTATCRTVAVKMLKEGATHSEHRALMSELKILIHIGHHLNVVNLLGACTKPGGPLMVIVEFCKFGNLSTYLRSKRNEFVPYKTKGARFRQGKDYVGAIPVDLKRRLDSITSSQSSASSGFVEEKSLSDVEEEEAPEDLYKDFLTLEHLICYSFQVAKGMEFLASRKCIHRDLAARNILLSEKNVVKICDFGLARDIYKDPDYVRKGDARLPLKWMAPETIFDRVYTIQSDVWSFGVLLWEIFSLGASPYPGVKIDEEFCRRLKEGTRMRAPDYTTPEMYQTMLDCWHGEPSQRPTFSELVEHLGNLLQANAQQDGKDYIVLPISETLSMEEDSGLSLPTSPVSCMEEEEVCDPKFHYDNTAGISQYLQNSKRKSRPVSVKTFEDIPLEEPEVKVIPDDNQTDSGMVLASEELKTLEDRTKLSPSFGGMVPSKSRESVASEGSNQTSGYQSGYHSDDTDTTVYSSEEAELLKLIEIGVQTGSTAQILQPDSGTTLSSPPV
Structure (SMILES),IC50 [1] [µM],IC50 [2] [µM]
"COc1cc2nccc(Oc3cc(F)c(NC(=O)c4c(C)n(C)c(C)c(C5CC5)c4=O)cc3F)c2nc1OC [Compound 47, 5-Cyclopropyl-N-[4-[(6,7-dimethoxy-1,5-naphthyridin-4-yl)oxy]-2,5-difluorophenyl]-1,2,6-trimethyl-4-oxopyridine-3-carboxamide]",> 0.3,≤ 0.1
"COc1cc2nccc(Oc3ccc(NC(=O)c4c(C)n(C)c(C)c(C5CC5)c4=O)cc3)c2nc1OC [Compound 48, 5-Cyclopropyl-N-[4-[(6,7-dimethoxy-1,5-naphthyridin-4-yl)oxy]phenyl]-1,2,6-trimethyl-4-oxopyridine-3-carboxamide]",> 0.3,≤ 0.1
"COc1cc2nccc(Oc3ccc(NC(=O)c4c(C)n(C)c(C)c(/C=C/C(C)(C)C)c4=O)cc3F)c2nc1OC [Compound 49, N-[4-[(6,7-Dimethoxy-1,5-naphthyridin-4-yl)oxy]-3-fluorophenyl]-5-[(E)-3,3-dimethylbut-1-enyl]-1,2,6-trimethyl-4-oxopyridine-3-carboxamide]",≤ 0.1,≤ 0.1
"COc1cc2nccc(Oc3ccc(NC(=O)c4c(C)n(C)c(C)c(/C=C/C5CC5)c4=O)cc3F)c2nc1OC [Compound 50, 5-[(E)-2-Cyclopropylethenyl]-N-[4-[(6,7-dimethoxy-1,5-naphthyridin-4-yl)oxy]-3-fluorophenyl]-1,2,6-trimethyl-4-oxopyridine-3-carboxamide]",> 0.3,≤ 0.1
"COCCOc1cc2nccc(Oc3ccc(NC(=O)c4c(C)n(C)c(C)c(/C=C/C5CC5)c4=O)cc3F)c2nc1OC [Compound 51, 5-[(E)-2-Cyclopropylethenyl]-N-[3-fluoro-4-[[6-methoxy-7-(2-methoxyethoxy)-1,5-naphthyridin-4-yl]oxy]phenyl]-1,2,6-trimethyl-4-oxopyridine-3-carboxamide]",> 0.3,≤ 0.1
"COc1cc2nccc(Oc3ccc(NC(=O)c4c5n(c(C)c(C6=CCOCC6)c4=O)CCOC5)cc3F)c2nc1OC [Compound 79, 7-(3,6-Dihydro-2H-pyran-4-yl)-N-[4-[(6,7-dimethoxy-1,5-naphthyridin-4-yl)oxy]-3-fluorophenyl]-6-methyl-8-oxo-3,4-dihydro-1H-pyrido[2,1-c][1,4]oxazine-9-carboxamide]",> 0.3,≤ 0.1
"COc1cc2nccc(Oc3ccc(NC(=O)c4c5n(c(C)c(C6=CCCCC6)c4=O)CCOC5)cc3F)c2nc1OC [Compound 80, 7-(Cyclohexen-1-yl)-N-[4-[(6,7-dimethoxy-1,5-naphthyridin-4-yl)oxy]-3-fluorophenyl]-6-methyl-8-oxo-3,4-dihydro-1H-pyrido[2,1-c][1,4]oxazine-9-carboxamide]",≤ 0.1,≤ 0.1
"COc1cnc2c(Oc3ccc(NC(=O)c4c(C)n(C)c(C)c(C#N)c4=O)cc3F)ccnc2c1 [Compound 81, 5-Cyano-N-[3-fluoro-4-[(7-methoxy-1,5-naphthyridin-4-yl)oxy]phenyl]-1,2,6-trimethyl-4-oxopyridine-3-carboxamide]",> 0.3,> 0.3
"COc1cc2nccc(Oc3ccc(NC(=O)c4c(C)n(C)c(C)c(C#N)c4=O)cc3)c2nc1OC [Compound 82, 5-Cyano-N-[4-[(6,7-dimethoxy-1,5-naphthyridin-4-yl)oxy]phenyl]-1,2,6-trimethyl-4-oxopyridine-3-carboxamide]",> 0.3,> 0.3
"COCCOc1cc2nccc(Oc3cc(F)c(NC(=O)c4c(C)n(C)c(C)c(C#N)c4=O)cc3F)c2nc1OC [Compound 83, 5-Cyano-N-[2,5-difluoro-4-[[6-methoxy-7-(2-methoxyethoxy)-1,5-naphthyridin-4-yl]oxy]phenyl]-1,2,6-trimethyl-4-oxopyridine-3-carboxamide]",> 0.3,0.1 to 0.3
"COc1cc2nccc(Oc3ccc(NC(=O)c4c(C)nc(C)c(C(N)=O)c4O)cc3F)c2nc1OC [Compound 84, 3-N-[4-[(6,7-Dimethoxy-1,5-naphthyridin-4-yl)oxy]-3-fluorophenyl]-4-hydroxy-2,6-dimethylpyridine-3,5-dicarboxamide]",> 0.3,> 0.3
"COc1cc2nccc(Oc3ccc(NC(=O)c4c(C)nc(C)c(C(N)=O)c4O)cc3)c2nc1OC [Compound 85, 3-N-[4-[(6,7-Dimethoxy-1,5-naphthyridin-4-yl)oxy]phenyl]-4-hydroxy-2,6-dimethylpyridine-3,5-dicarboxamide]",> 0.3,> 0.3
"COCCOc1cc2nccc(Oc3cc(F)c(NC(=O)c4c(C)nc(C)c(C(N)=O)c4O)cc3F)c2nc1OC [Compound 86, 3-N-[2,5-Difluoro-4-[[6-methoxy-7-(2-methoxyethoxy)-1,5-naphthyridin-4-yl]oxy]phenyl]-4-hydroxy-2,6-dimethylpyridine-3,5-dicarboxamide]",> 0.3,> 0.3
"COc1cc2nccc(Oc3ccc(NC(=O)c4c(C)nc(C)c(C#N)c4O)cc3F)c2nc1OC [Compound 87, 5-Cyano-N-[4-[(6,7-dimethoxy-1,5-naphthyridin-4-yl)oxy]-3-fluorophenyl]-4-hydroxy-2,6-dimethylpyridine-3-carboxamide]",0.1 to 0.3,> 0.3
"COc1cc2nccc(Oc3ccc(NC(=O)c4c(C)n(C)c(C)c(N5CCOCC5)c4=O)cc3F)c2nc1OC [Compound 88, N-[4-[(6,7-Dimethoxy-1,5-naphthyridin-4-yl)oxy]-3-fluorophenyl]-1,2,6-trimethyl-5-morpholin-4-yl-4-oxopyridine-3-carboxamide]",> 0.3,≤ 0.1
"COc1cc2nccc(Oc3ccc(NC(=O)c4c(C)n(C)c(C)c(N5CCCC5)c4=O)cc3F)c2nc1OC [Compound 89, N-[4-[(6,7-Dimethoxy-1,5-naphthyridin-4-yl)oxy]-3-fluorophenyl]-1,2,6-trimethyl-4-oxo-5-pyrrolidin-1-ylpyridine-3-carboxamide]",≤ 0.1,≤ 0.1
"COc1cc2nccc(Oc3ccc(NC(=O)c4c(C)n(C)c(C)c(N5CCCCC5)c4=O)cc3F)c2nc1OC [Compound 90, N-[4-[(6,7-dimethoxy-1,5-naphthyridin-4-yl)oxy]-3-fluorophenyl]-1,2,6-trimethyl-4-oxo-5-piperidin-1-ylpyridine-3-carboxamide]",0.1 to 0.3,≤ 0.1
"COc1cnc2c(Oc3ccc(NC(=O)c4c(C)nc(C)c(C(N)=O)c4O)cc3F)ccnc2c1 [Compound 91, 3-N-[3-Fluoro-4-[(7-methoxy-1,5-naphthyridin-4-yl)oxy]phenyl]-4-hydroxy-2,6-dimethylpyridine-3,5-dicarboxamide]",> 0.3,> 0.3
"COc1cc2nccc(Oc3ccc(NC(=O)c4c(C)n(C)c(C)c(C(=O)O)c4=O)cc3F)c2nc1OC [Compound 92, 5-[[4-[(6,7-Dimethoxy-1,5-naphthyridin-4-yl)oxy]-3-fluorophenyl]carbamoyl]-1,2,6-trimethyl-4-oxopyridine-3-carboxylic acid]",0.1 to 0.3,> 0.3
"COc1cc2nccc(Oc3ccc(NC(=O)c4c(C)nc(C)c(C(=O)N(C)C)c4O)cc3F)c2nc1OC [Compound 93, 3-N-[4-[(6,7-Dimethoxy-1,5-naphthyridin-4-yl)oxy]-3-fluorophenyl]-4-hydroxy-5-N,5-N,2,6-tetramethylpyridine-3,5-dicarboxamide]",≤ 0.1,≤ 0.1
"COc1cc2nccc(Oc3ccc(NC(=O)c4c(C)nc(C)c(C(=O)NC(C)C)c4O)cc3F)c2nc1OC [Compound 94, 3-N-[4-[(6,7-Dimethoxy-1,5-naphthyridin-4-yl)oxy]-3-fluorophenyl]-4-hydroxy-2,6-dimethyl-5-N-propan-2-ylpyridine-3,5-dicarboxamide]",≤ 0.1,≤ 0.1
"COc1cc2nccc(Oc3ccc(NC(=O)c4c(C)n(C)c(C)c(C(=O)N(C)C)c4=O)cc3F)c2nc1OC [Compound 95, 5-N-[4-[(6,7-Dimethoxy-1,5-naphthyridin-4-yl)oxy]-3-fluorophenyl]-3-N,3-N,1,2,6-pentamethyl-4-oxopyridine-3,5-dicarboxamide]",> 0.3,0.1 to 0.3
"COc1cc2nccc(Oc3ccc(NC(=O)c4c(C)n(C)c(C)c(C(=O)NC5CC5)c4=O)cc3F)c2nc1OC [Compound 96, 3-N-Cyclopropyl-5-N-[4-[(6,7-dimethoxy-1,5-naphthyridin-4-yl)oxy]-3-fluorophenyl]-1,2,6-trimethyl-4-oxopyridine-3,5-dicarboxamide]",> 0.3,> 0.3

# Source: US20240158393A1, “PYRIDONE COMPOUNDS AND METHODS OF USE” (Exelixis, Inc., priority 2021, published 2024)
